Assay results as given in patent publication US20040259851A1, “Methods of administering estrogens and progestins” (priority 2003, published 2004).
Read-outs that look alike come from different tables or passages of the source.

Columns and labels:
[1] = Megestrol Acetate in plasma samples by GC/MS; type: in vivo; conditions: human; for concentration at 1 h: 1 h post dosing; for concentration at 2 h: 2 h post dosing; for concentration at 4 h: 4 h post dosing; for concentration at 8 h: 8 h post dosing; for concentration at 12 h: 12 h post dosing; for concentration at 24 h: 24 h post dosing; for concentration at 36 h: 36 h post dosing; for concentration at 48 h: 48 h post dosing; for concentration at 0 h: time 0 h (predose)
Experimental: A total of 90 plasma samples were analyzed for their content of Megestrol Acetate by GC/MS.
In this study megestrol acetate was utilized and medroxyprogesterone acetate was utilized as an internal standard.
For each sample, 1 mL of human plasma was aliquoted and spiked with 25 μL of the internal standard working solution. In the following, the samples were alkalized and extracted with a toluene/diisopropylether mixture. The resulting extracts were stored in a refrigerator until measurement. Just prior to measurement, the sample extracts were evaporated to dryness and reconstituted in toluene. 2 μL of the resulting solution were injected into the GC/MS system. The gas chromatograph was run in the temperature-programmed mode to achieve improved separation. Positive ions chemical ionization (PICI) was used for mass selective detection. Selected mass/charge ratios were m/z 385.2 for megestrol acetate and m/z 387.2 for the internal standard.
The time measured represents the number of hours passed post dosing. Subjects 2, 4, 6, 8 and 10 all received a 6 mg dose of megestrol acetate. Subjects 1, 3, 5, 7 and 9 all received a 1.5 mg dose of megestrol acetate. […] A third measurement was not possible due to insufficient sample. During the study, 3 series of plasma calibration curves were measured (prevalidation run not considered).

menopausal hot flashes = conditions: cited from earlier work

CC(=O)O[C@]1(C(C)=O)CC[C@H]2[C@@H]3C=C(C)C4=CC(=O)CC[C@]4(C)[C@H]3CC[C@@]21C [megestrol acetate, Pregna-4,6-diene-3,20-dione, 17-(acetyloxy)-6-methyl-]
concentration at 1 h ([1]; 1.5 mg, Sub 1, 1.5 mg dose): 7.82 ng/mL
concentration at 2 h ([1]; 1.5 mg, Sub 1, 1.5 mg dose): 2.74 ng/mL
concentration at 4 h ([1]; 1.5 mg, Sub 1, 1.5 mg dose): 1.01 ng/mL
concentration at 8 h ([1]; 1.5 mg, Sub 1, 1.5 mg dose): 0.607 ng/mL
concentration at 12 h ([1]; 1.5 mg, Sub 1, 1.5 mg dose): 0.413 ng/mL
concentration at 24 h ([1]; 1.5 mg, Sub 1, 1.5 mg dose): 0.399 ng/mL
concentration at 36 h ([1]; 1.5 mg, Sub 1, 1.5 mg dose): 0.504 ng/mL
concentration at 48 h ([1]; 1.5 mg, Sub 1, 1.5 mg dose): 0.463 ng/mL
concentration at 0 h ([1]; 1.5 mg, Sub 1, 1.5 mg dose): 0.492 ng/mL
concentration at 1 h ([1]; 1.5 mg, Sub 3, 1.5 mg dose): 9.32 ng/mL
concentration at 2 h ([1]; 1.5 mg, Sub 3, 1.5 mg dose): 5.24 ng/mL
concentration at 4 h ([1]; 1.5 mg, Sub 3, 1.5 mg dose): 3.04 ng/mL
concentration at 8 h ([1]; 1.5 mg, Sub 3, 1.5 mg dose): 2.66 ng/mL
concentration at 12 h ([1]; 1.5 mg, Sub 3, 1.5 mg dose): 1.98 ng/mL
concentration at 24 h ([1]; 1.5 mg, Sub 3, 1.5 mg dose): 1.8 ng/mL
concentration at 36 h ([1]; 1.5 mg, Sub 3, 1.5 mg dose): 1.99 ng/mL
concentration at 48 h ([1]; 1.5 mg, Sub 3, 1.5 mg dose): 1.48 ng/mL
concentration at 0 h ([1]; 1.5 mg, Sub 3, 1.5 mg dose): 1.98 ng/mL
concentration at 1 h ([1]; 1.5 mg, Sub 5, 1.5 mg dose): 4.98 ng/mL
concentration at 2 h ([1]; 1.5 mg, Sub 5, 1.5 mg dose): 2.75 ng/mL
concentration at 4 h ([1]; 1.5 mg, Sub 5, 1.5 mg dose): 0.959 ng/mL
concentration at 8 h ([1]; 1.5 mg, Sub 5, 1.5 mg dose): 0.521 ng/mL
concentration at 12 h ([1]; 1.5 mg, Sub 5, 1.5 mg dose): 0.353 ng/mL
concentration at 24 h ([1]; 1.5 mg, Sub 5, 1.5 mg dose): 0.344 ng/mL
concentration at 36 h ([1]; 1.5 mg, Sub 5, 1.5 mg dose): 0.409 ng/mL
concentration at 48 h ([1]; 1.5 mg, Sub 5, 1.5 mg dose): 0.267 ng/mL
concentration at 0 h ([1]; 1.5 mg, Sub 5, 1.5 mg dose): 0.426 ng/mL
concentration at 1 h ([1]; 1.5 mg, Sub 7, 1.5 mg dose): 7.82 ng/mL
concentration at 2 h ([1]; 1.5 mg, Sub 7, 1.5 mg dose): 4.83 ng/mL
concentration at 4 h ([1]; 1.5 mg, Sub 7, 1.5 mg dose): 1.99 ng/mL
concentration at 8 h ([1]; 1.5 mg, Sub 7, 1.5 mg dose): 1.47 ng/mL
concentration at 12 h ([1]; 1.5 mg, Sub 7, 1.5 mg dose): 1.59 ng/mL
concentration at 24 h ([1]; 1.5 mg, Sub 7, 1.5 mg dose): 0.771 ng/mL
concentration at 36 h ([1]; 1.5 mg, Sub 7, 1.5 mg dose): 0.592 ng/mL
concentration at 48 h ([1]; 1.5 mg, Sub 7, 1.5 mg dose): 0.564 ng/mL
concentration at 0 h ([1]; 1.5 mg, Sub 7, 1.5 mg dose): 0.851 ng/mL
concentration at 1 h ([1]; 1.5 mg, Sub 9, 1.5 mg dose): 14.4 ng/mL
concentration at 2 h ([1]; 1.5 mg, Sub 9, 1.5 mg dose): 9.21 ng/mL
concentration at 4 h ([1]; 1.5 mg, Sub 9, 1.5 mg dose): 4.02 ng/mL
concentration at 8 h ([1]; 1.5 mg, Sub 9, 1.5 mg dose): 1.64 ng/mL
concentration at 12 h ([1]; 1.5 mg, Sub 9, 1.5 mg dose): 1.59 ng/mL
concentration at 24 h ([1]; 1.5 mg, Sub 9, 1.5 mg dose): 1.09 ng/mL
concentration at 36 h ([1]; 1.5 mg, Sub 9, 1.5 mg dose): 1.3 ng/mL
concentration at 48 h ([1]; 1.5 mg, Sub 9, 1.5 mg dose): 1.31 ng/mL
concentration at 0 h ([1]; 1.5 mg, Sub 9, 1.5 mg dose): 1.4 ng/mL
concentration at 1 h ([1]; 6 mg, Sub 2, 6 mg dose): 32.9 ng/mL
concentration at 2 h ([1]; 6 mg, Sub 2, 6 mg dose): 28.1 ng/mL
concentration at 4 h ([1]; 6 mg, Sub 2, 6 mg dose): 9.89 ng/mL
concentration at 8 h ([1]; 6 mg, Sub 2, 6 mg dose): 6.98 ng/mL
concentration at 12 h ([1]; 6 mg, Sub 2, 6 mg dose): 5.84 ng/mL
concentration at 24 h ([1]; 6 mg, Sub 2, 6 mg dose): 4.4 ng/mL
concentration at 36 h ([1]; 6 mg, Sub 2, 6 mg dose): 5.04 ng/mL
concentration at 48 h ([1]; 6 mg, Sub 2, 6 mg dose): 3.58 ng/mL
concentration at 0 h ([1]; 6 mg, Sub 2, 6 mg dose): 6.48 ng/mL
concentration at 1 h ([1]; 6 mg, Sub 4, 6 mg dose): 37.4 ng/mL
concentration at 2 h ([1]; 6 mg, Sub 4, 6 mg dose): 18.7 ng/mL
concentration at 4 h ([1]; 6 mg, Sub 4, 6 mg dose): 7.22 ng/mL
concentration at 8 h ([1]; 6 mg, Sub 4, 6 mg dose): 4.7 ng/mL
concentration at 12 h ([1]; 6 mg, Sub 4, 6 mg dose): 3.05 ng/mL
concentration at 24 h ([1]; 6 mg, Sub 4, 6 mg dose): 2.17 ng/mL
concentration at 36 h ([1]; 6 mg, Sub 4, 6 mg dose): 3.58 ng/mL
concentration at 48 h ([1]; 6 mg, Sub 4, 6 mg dose): 2.9 ng/mL
concentration at 0 h ([1]; 6 mg, Sub 4, 6 mg dose): 4.44 ng/mL
concentration at 1 h ([1]; 6 mg, Sub 6, 6 mg dose): 44 ng/mL
concentration at 2 h ([1]; 6 mg, Sub 6, 6 mg dose): 32.1 ng/mL
concentration at 4 h ([1]; 6 mg, Sub 6, 6 mg dose): 12.6 ng/mL
concentration at 8 h ([1]; 6 mg, Sub 6, 6 mg dose): 7.61 ng/mL
concentration at 12 h ([1]; 6 mg, Sub 6, 6 mg dose): 5.8 ng/mL
concentration at 24 h ([1]; 6 mg, Sub 6, 6 mg dose): 4.04 ng/mL
concentration at 36 h ([1]; 6 mg, Sub 6, 6 mg dose): 6.58 ng/mL
concentration at 48 h ([1]; 6 mg, Sub 6, 6 mg dose): 5.65 ng/mL
concentration at 0 h ([1]; 6 mg, Sub 6, 6 mg dose): 8.58 ng/mL
concentration at 1 h ([1]; 6 mg, Sub 8, 6 mg dose): 19.5 ng/mL
concentration at 2 h ([1]; 6 mg, Sub 8, 6 mg dose): 10.6 ng/mL
concentration at 4 h ([1]; 6 mg, Sub 8, 6 mg dose): 3.68 ng/mL
concentration at 8 h ([1]; 6 mg, Sub 8, 6 mg dose): 1.41 ng/mL
concentration at 12 h ([1]; 6 mg, Sub 8, 6 mg dose): 0.908 ng/mL
concentration at 24 h ([1]; 6 mg, Sub 8, 6 mg dose): 0.459 ng/mL
concentration at 36 h ([1]; 6 mg, Sub 8, 6 mg dose): 1.34 ng/mL
concentration at 48 h ([1]; 6 mg, Sub 8, 6 mg dose): 0.796 ng/mL
concentration at 0 h ([1]; 6 mg, Sub 8, 6 mg dose): < 0.1 ng/mL
concentration at 1 h ([1]; 6 mg, Sub 10, 6 mg dose): 23.5 ng/mL
concentration at 2 h ([1]; 6 mg, Sub 10, 6 mg dose): 17.2 ng/mL
concentration at 4 h ([1]; 6 mg, Sub 10, 6 mg dose): 6.93 ng/mL
concentration at 8 h ([1]; 6 mg, Sub 10, 6 mg dose): 4.95 ng/mL
concentration at 12 h ([1]; 6 mg, Sub 10, 6 mg dose): 2.85 ng/mL
concentration at 24 h ([1]; 6 mg, Sub 10, 6 mg dose): 1.77 ng/mL
concentration at 36 h ([1]; 6 mg, Sub 10, 6 mg dose): 2.6 ng/mL
concentration at 48 h ([1]; 6 mg, Sub 10, 6 mg dose): 1.63 ng/mL
decrease of menopausal hot flashes (menopausal hot flashes; daily dose 20 mg): 80%
decrease of menopausal hot flashes (menopausal hot flashes; daily dose 40 mg): 89%
decrease of menopausal hot flashes (menopausal hot flashes; daily dose 80 mg): 98%
